This note sets out measurements from patent publication US20240174684A1, “INHIBITORS OF cGAS ACTIVITY AS THERAPEUTIC AGENTS” (BELLBROOK LABS, LLC, priority 2021, published 2024).

Values after ≈ are worked out from the molar mass of the structure shown. Read-outs that look alike come from different tables or passages of the source.

The test system of data set [1] is MDCK cells expressing human MDR1 (P-glycoprotein). Put plainly: MDCK-MDR1 permeability A→B. It counts as in vitro ADME, Canine. The method in brief:
(§1)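 Permeability measured apical-to-basolateral in MDCK cells expressing human MDR1, reported as binned ranges in cm/s×10^−6. Metabolic stability determined as half-life in mouse and human hepatocytes, reported as binned ranges in minutes.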

Data set [2] is described as follows: Metabolic stability in mouse hepatocytes. The conditions noted are these: read-out: Mouse MS Stability t1/2. It counts as in vitro ADME. The protocol:
(§2) ADME studies: Compound A and the compounds of the disclosure were tested for aqueous solubility (KSOL), metabolic stability (human and mouse […]) and permeability (Caco-2 and/or MDR1-MDCK cells) to provide an initial indication of oral bioavailability.
(§3) The favorable physicochemical properties are reflected in promising results in in vitro ADME tests. […] Metabolic stability, which was routinely measured with mouse and human hepatocytes, is outstanding, with t, greater than 2 hours for all of the compounds of the disclosure in which it has been measured. Cell permeability was measured using MDCK cells expressing human MDR1 (P-glycoprotein) to assess passive permeability as well as active transport out of the cell. […] Numerous compounds in Table 1 meet these permeability criteria, which is consistent with their design for TPSA <140 Å^2 and increased lipophilicity.
(§4) The MDCK-MDR1 permeability A ->B is shown in Table 2 below, where A represents 5-10 cm/s×10^−6; B represents 1-5 cm/s×10^−6; and C represents <1 cm/ss×10^−6. The metabolic stability half time, in both mouse and human hepatocytes, is also shown in Table 2 below, where A′ represents 100-200 minutes; B′ represents 200-300 minutes; and C′ represents >300 minutes.

Data set [3] is described as follows: Metabolic stability in human hepatocytes. The conditions noted are these: read-out: Human MS Stability t1/2. It is filed as in vitro ADME. The protocol: as §2, §3, §4
Data set [4] in a line: Kinetic aqueous solubility (KSOL) in PBS, pH 7.4. It counts as physicochemical. The conditions noted are these: aqueous buffer, kinetic from dmso stock. The protocol:
as §2, §3

Data set [5] concerns the target cGAS (Homo sapiens, UniProt Q8N884). Put plainly: Transcreener cGAS enzymatic assay (FP). It counts as biochemical. The method in brief: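 Human cGAS (30 nm) inhibition, 60 min reactions, FP read-out, standard conditions 100 μM ATP and GTP plus 62.5 nM bp ISD. Also run at 1 mM ATP and GTP (physiological), with 200 μM MnCl2, and with mouse cGAS under standard conditions; IC50 reported.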

Data set [6] has as its system IFNβ production in THP-1 cells. Description: IFNβ ELISA in THP-1 cells. It counts as cell-based, human. Conditions: Homo sapiens; THP-1 cells. The method, boiled down: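 THP-1 cells stimulated with dsDNA or cGAMP (STING activation bypassing cGAS) in the presence of compound; IFNβ secreted into medium quantified by ELISA. IC50 values reported in potency bins.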
(In general: In an ELISA, binding on a coated surface is turned into a signal by an enzyme label.)

The subject of data set [7] is MDR1 (P-glycoprotein). Description: MDCK-MDR1 permeability A→B. It counts as in vitro ADME, Canine. Conditions: dog; MDCK cells expressing human MDR1, A→B; read-out: MDCK-MDR Permeability A→B. The method in brief: as §1
Data set [8] deals with IFN-β production in PBMCs. Put plainly: IFNβ ELISA in human primary PBMCs. It counts as cell-based. The conditions noted are these: PBMC. The text has this:
Cellular assays: The human monocyte cell line THP-1 and human primary PBMCs were used to evaluate the cellular activity of compounds with good biochemical potency. These cells produce a robust cGAS/STING-dependent type I IFN response when stimulated with dsDNA and other pathogen-associated molecular patterns, which was detected using a standard ELISA for IFNβ (R&D Systems). The TBK1 inhibitor, BX-795, which acts downstream of cGAS/STING, was used as a probe.
The ICso values for IFNB ELISA stimulated with THP-1, PBMC, DNA, and cGAMP were determined for several exemplary compounds of the invention, and are provided in Table 3 where A represents <1 μM; B represents 1-2.5 μM; C represents 2.5-10 μM; D represents 10-20 μM; and E represents >20 μM.
The reporter gene assays were used to assess off-target activity with IRF30Luc (RIG-1) or NFKB (TLR4); CellTiter Glo (ATP levels) and Presto Blue (reducing equivalents) were used to assess cytotoxicity; all assays were performed in dose response mode. […] The inventors recently began using human PBMCs to assess cellular potency in a more physiologically relevant context.

[9] abbreviates: high ATP and GTP (1 mM) to mimic physiological conditions, read-out: IC50 FP Physiological.
[10] abbreviates: standard conditions: 100 μM ATP and GTP, 62.5 nM bp ISD, 60 minute reactions, read-out: IC50 FP Standard.

cGAS, sequence (Q8N884 whole entry): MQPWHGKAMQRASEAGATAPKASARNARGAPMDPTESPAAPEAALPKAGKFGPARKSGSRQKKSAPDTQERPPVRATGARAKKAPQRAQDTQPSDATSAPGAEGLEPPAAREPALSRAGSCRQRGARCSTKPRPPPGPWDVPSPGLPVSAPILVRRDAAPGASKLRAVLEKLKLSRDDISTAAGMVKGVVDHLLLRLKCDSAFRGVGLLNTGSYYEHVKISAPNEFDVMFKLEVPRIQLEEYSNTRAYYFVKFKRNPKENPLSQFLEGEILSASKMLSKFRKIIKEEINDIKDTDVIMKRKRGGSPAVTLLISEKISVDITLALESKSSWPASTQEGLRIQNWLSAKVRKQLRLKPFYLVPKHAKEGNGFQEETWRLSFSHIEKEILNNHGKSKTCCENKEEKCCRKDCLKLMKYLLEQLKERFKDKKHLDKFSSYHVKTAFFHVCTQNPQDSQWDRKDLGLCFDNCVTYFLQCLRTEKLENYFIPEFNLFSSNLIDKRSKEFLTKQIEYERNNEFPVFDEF

As usually defined, the solubility (kinetic) is solubility judged after dilution from a stock solution rather than from solid. By IC50 is commonly meant the concentration at which inhibition is half-maximal. For `Cc1nc(N2C[C@@H](CC(=O)N(C)C3CCCC3)C[C@H]2C(=O)O)c2oc3ccccc3c2n1` [Compound 2, (2S,4R)-4-(2-(cyclopentyl(methyl)amino)-2-oxoethyl)-1-(2-methylbenzofuro[3,2-d]pyrimidin-4-yl)pyrrolidine-2-carboxylic acid], in data set [1], the “MDCK-MDR Permeability A→B” value is reported as “C (C represents <1 cm/ss×10^−6)”. For the same molecule, the half-life in data set [2] and in data set [3] was greater than 5 h throughout. This molecule also yielded a kinetic solubility in data set [4] of 506 µM (≈ 221 µg/mL). Besides, the IC50 in data set [5] (setting [9]) is 500 to 1000 nM; in data set [5] (setting [10]), 50 to 100 nM; in data set [6], greater than 20000 nM.
With `COc1cc(NC(=O)C[C@H]2C[C@@H](C(=O)O)N(c3nc(C)nc4c3oc3ccccc34)C2)ccn1` [Compound 6, (2S,4R)-4-(2-((2-methoxypyridin-4-yl)amino)-2-oxoethyl)-1-(2-methylbenzofuro[3,2-d]pyrimidin-4-yl)pyrrolidine-2-carboxylic acid], the “MDCK-MDR Permeability A→B” value in data set [1] was “C (C represents <1 cm/ss×10^−6)”. Further, the half-life in data set [2] and in data set [3] was greater than 5 h each time. Also, in data set [4], the kinetic solubility is 496 µM (≈ 229 µg/mL). The 50% inhibitory concentration (IC50) in data set [5] (setting [9]) lay within 1000 to 5000 nM; in data set [5] (setting [10]), 50 to 100 nM; in data set [6], 2500 to 10000 nM.
`Cc1nc(N2C[C@@H](CC(=O)Nc3ccc4[nH]ccc4c3)C[C@H]2C(=O)O)c2oc3ccccc3c2n1` [Compound 1, (2S,4R)-4-(2-((1H-indol-5-yl)amino)-2-oxyethyl)-1-(2-methylbenzofuro[3,2-d]pyrimidin-4-yl)pyrrolidine-2-carboxylic acid]: the Papp A→B in data set [7] was 1 to 5 ×10⁻⁶ cm/s. Further, the half-life is 1.67 to 3.33 h in data set [2] and greater than 5 h in data set [3]. The molecule further returned a solubility (kinetic) in data set [4] of 487 µM (≈ 229 µg/mL). Moreover, the concentration for half-maximal inhibition (IC50) in data set [5] (setting [9]) is 1000 to 5000 nM; in data set [5] (setting [10]), 50 to 100 nM; in data set [6] it was 2500 to 10000 nM.
With `Cc1nc(N2C[C@@H](CC(=O)Nc3ccc(OC(F)(F)F)cc3)C[C@H]2C(=O)O)c2oc3ccccc3c2n1` [Compound 12, (2S,4R)-1-(2-methylbenzofuro[3,2-d]pyrimidin-4-yl)-4-(2-oxo-2-((4-(trifluoromethoxy)phenyl)amino)ethyl)pyrrolidine-2-carboxylic acid], the Papp A→B in data set [7] is 5 to 10 ×10⁻⁶ cm/s. Also, the IC50 in data set [5] (setting [9]) is greater than 5000 nM; in data set [5] (setting [10]), 200 to 1000 nM; in data set [6], 1000 to 2500 nM; in data set [8], 2500 to 10000 nM.
Turning to `Cc1nc(N2C[C@@H](CC(=O)Nc3ccc(-c4ccc5[nH]ncc5c4)cc3)C[C@H]2C(=O)O)c2oc3ccccc3c2n1` [Compound 38, (2S,4R)-4-(2-((4-(1H-indazol-5-yl)phenyl)amino)-2-oxoethyl)-1-(2-methylbenzofuro[3,2-d]pyrimidin-4-yl)pyrrolidine-2-carboxylic acid], the “MDCK-MDR Permeability A→B” value in data set [1] was “C (C represents <1 cm/ss×10^−6)”. Moreover, the half-life was greater than 5 h in data set [2] and 1.67 to 3.33 h in data set [3]. In addition, the solubility (kinetic) in data set [4] amounted to 84 µM (≈ 45.9 µg/mL). Besides, the IC50 in data set [5] (setting [9]) was 200 to 500 nM; in data set [5] (setting [10]) it was less than 50 nM; in data set [6], 1000 to 2500 nM; in data set [8] it was 2500 to 10000 nM.
Regarding `Cc1nc(N2C[C@@H](CC(=O)Nc3ccc4ccncc4c3)C[C@H]2C(=O)O)c2oc3ccccc3c2n1` [Compound 34, (28.4R)-4-(2-(isoquinolin-7-ylamino)-2-oxoethyl)-1-(2-methylbenzofuro[3,2-d]pyrimidin-4-yl)pyrrolidine-2-carboxylic acid], in data set [7], the Papp A→B fell in the range of 1 to 5 ×10⁻⁶ cm/s. Moreover, the half-maximal inhibitory concentration (IC50) in data set [5] (setting [9]) was 200 to 500 nM; in data set [5] (setting [10]) it was less than 50 nM; in data set [6], 2500 to 10000 nM; in data set [8], 2500 to 10000 nM.
With `Cc1nc(N2C[C@@H](CC(=O)Nc3ccc(C(F)(F)F)cc3)C[C@H]2C(=O)O)c2oc3ccccc3c2n1` [Compound 24, (28.4R)-1-(2-methylbenzofuro[3,2-d]pyrimidin-4-yl)-4-(2-oxo-2-((4-(trifluoromethyl)phenyl)amino)ethyl)pyrrolidine-2-carboxylic acid], the Papp A→B in data set [7] was in the range of 1 to 5 ×10⁻⁶ cm/s. Besides, the concentration for half-maximal inhibition (IC50) in data set [5] (setting [9]) fell in the range of 1000 to 5000 nM; in data set [5] (setting [10]), 200 to 1000 nM; in data set [6] it was 10000 to 20000 nM; in data set [8], 10000 to 20000 nM.
In the case of `Cc1nc(N2C[C@@H](CC(=O)Nc3ccc4ncccc4c3)C[C@H]2C(=O)O)c2oc3ccccc3c2n1` [Compound 32, (2S,4R)-1-(2-methylbenzofuro[3,2-d]pyrimidin-4-yl)-4-(2-oxo-2-(quinolin-6-ylamino)ethyl)pyrrolidine-2-carboxylic acid], the “MDCK-MDR Permeability A→B” value in data set [1] is “C (C represents <1 cm/ss×10^−6)”. The half-life in data set [2] is 3.33 to 5 h; in data set [3], greater than 5 h. For the same molecule, the solubility (kinetic) in data set [4] is 527 µM (≈ 254 µg/mL). In addition, the IC50 is 1000 to 5000 nM in data set [5] (setting [9]), 50 to 100 nM in data set [5] (setting [10]), 2500 to 10000 nM in data set [6] and 10000 to 20000 nM in data set [8].
Turning to `Cc1nc(N2C[C@@H](CC(=O)Nc3ccc(-c4cccnc4)cc3)C[C@H]2C(=O)O)c2oc3ccccc3c2n1` [Compound 37, (2S,4R)-1-(2-methylbenzofuro[3,2-d]pyrimidin-4-yl)-4-(2-oxo-2-((4-(pyridin-3-yl)phenyl)amino)ethyl)pyrrolidine-2-carboxylic acid], in data set [1], the “MDCK-MDR Permeability A→B” value was “C (C represents <1 cm/ss×10^−6)”. The values for the half-life in data set [2] and in data set [3] were 3.33 to 5 h and greater than 5 h, respectively. The molecule further registered a solubility (kinetic) in data set [4] of 547 µM (≈ 278 µg/mL). Besides, the IC50 in data set [5] (setting [9]) was less than 200 nM; in data set [5] (setting [10]), less than 50 nM; in data set [6], 1000 to 2500 nM; in data set [8], 1000 to 2500 nM.
For the molecule `Cc1nc(N2C[C@@H](CC(=O)Nc3ccc(-c4cccc5[nH]ncc45)cc3)C[C@H]2C(=O)O)c2oc3ccccc3c2n1` [Compound 46, (2S,4R)-4-(2-((4-(1H-indazol-4-yl)phenyl)amino)-2-oxoethyl)-1-(2-methylbenzofuro[3,2-d]pyrimidin-4-yl)pyrrolidine-2-carboxylic acid], the “MDCK-MDR Permeability A→B” value in data set [1] is reported as “C (C represents <1 cm/ss×10^−6)”. The half-life in data set [2] is greater than 5 h; in data set [3], 1.67 to 3.33 h. The molecule also showed a solubility (kinetic) in data set [4] of 42 µM (≈ 23 µg/mL). For the same molecule, the 50% inhibitory concentration (IC50) is less than 200 nM in data set [5] (setting [9]), less than 50 nM in data set [5] (setting [10]), less than 1000 nM in data set [6] and 1000 to 2500 nM in data set [8].
Consider `Cc1nc(N2C[C@@H](CC(=O)Nc3ccc4[nH]ncc4c3)C[C@H]2C(=O)O)c2oc3ccccc3c2n1` [Compound 3, (2S,4R)-4-(2-((1H-indazol-5-yl)amino)-2-oxyethyl)-1-(2-methylbenzofuro[3,2-d]pyrimidin-4-yl)pyrrolidine-2-carboxylic acid], for which the “MDCK-MDR Permeability A→B” value in data set [1] is given as “C (C represents <1 cm/ss×10^−6)”. Moreover, in data set [2], the half-life is greater than 5 h. Also, in data set [4], the kinetic solubility is 496 µM (≈ 233 µg/mL). In addition, the 50% inhibitory concentration (IC50) in data set [5] (setting [9]) is greater than 5000 nM; in data set [5] (setting [10]), 1000 to 10000 nM; in data set [6] it was 10000 to 20000 nM.
`Cc1nc(N2C[C@@H](CC(=O)Nc3cccc(Cl)c3)C[C@H]2C(=O)O)c2oc3ccccc3c2n1` [Compound 22, (2S,4R)-4-(2-((3-chlorophenyl)amino)-2-oxoethyl)-1-(2-methylbenzofuro[3,2-d]pyrimidin-4-yl)pyrrolidine-2-carboxylic acid]: the Papp A→B in data set [7] lay in the range of 1 to 5 ×10⁻⁶ cm/s. For the same molecule, the IC50 was 1000 to 5000 nM in data set [5] (setting [9]), 100 to 200 nM in data set [5] (setting [10]), 2500 to 10000 nM in data set [6] and 10000 to 20000 nM in data set [8].
